From patent US20250154173A1 (Merck Sharp & Dohme LLC, priority 2023, published 2025)

target: T1, GST-RIPK1 (recombinant GST-RIPK1 kinase domain (residues 1-327)) (Homo sapiens, UniProt Q13546); test: RIPK1-ADP-Glo Enzymatic Assay; format: biochemical; conditions: ten-point titration, top compound concentration of 100000 nM; 25 nM GST-RIPK1, 300 μM ATP, 3 μM dephosphorylated-MBP; 30 min pre-incubation, 150 min reaction
T1 construct: recombinant GST-RIPK1 kinase domain (residues 1-327) enzyme produced from baculovirus-transfected Sf21 cells; host or cells: baculovirus-transfected Sf21 insect cells
T1 sequence (Q13546 1-327): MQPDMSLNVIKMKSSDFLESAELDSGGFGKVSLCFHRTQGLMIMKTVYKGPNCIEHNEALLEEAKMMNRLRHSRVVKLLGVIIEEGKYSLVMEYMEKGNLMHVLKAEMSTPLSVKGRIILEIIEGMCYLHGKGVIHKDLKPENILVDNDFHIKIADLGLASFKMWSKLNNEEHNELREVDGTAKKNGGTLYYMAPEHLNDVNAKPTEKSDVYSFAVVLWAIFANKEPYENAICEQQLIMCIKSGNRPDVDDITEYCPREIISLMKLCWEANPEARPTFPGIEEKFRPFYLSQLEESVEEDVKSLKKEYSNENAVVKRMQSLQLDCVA
Summary of the method: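 ADP-Glo luminescence quantifies ADP formed over 150 minutes by 25 nM Sf21-produced GST-RIPK1 (1-327) using 300 μM ATP and 3 μM dephosphorylated MBP, following 30-minute compound preincubation at 1% DMSO. Ten-point 1:3 series from 100000 nM gave EC50 via four-parameter sigmoidal regression.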

| EC50 [µM] | Structure (SMILES) |
| --- | --- |
| 0.238 | COc1ccc2cc(COC3CC4(C3)OC3CC[C@@H](c5cnccn5)N3C4=O)cc(C)c2n1 (stereo partly drawn) [Example 18.89, (5′S)-3-[(2-methoxy-8-methylquinolin-6-yl)methoxy]-5′-(pyrazin-2-yl)tetrahydro-3′H-spiro[cyclobutane-1,2′-pyrrolo[2,1-b][1,3]oxazol]-3′-one] |
| 0.02 | O=C1N2[C@@H](CC[C@H]2c2ccccc2)OC12CC(Oc1nccc3nccn13)C2 (stereo partly drawn) [Example 8.20, (5′S,7a′R)-3-[(imidazo[1,2-c]pyrimidin-5-yl)oxy]-5′-phenyltetrahydro-3′H-spiro[cyclobutane-1,2′-pyrrolo[2,1-b][1,3]oxazol]-3′-one] |
| 0.1 | O=C1N2[C@@H](CC[C@H]2c2cnccn2)O[C@]12C[C@@H](OCc1cccnc1)C2 [Example 18.1, (1S,3S,5′S,7a′R)-5′-(pyrazin-2-yl)-3-(pyridin-3-ylmethoxy)tetrahydro-3′H-spiro[cyclobutane-1,2′-pyrrolo[2,1-b]oxazol]-3′-one] |
| 0.014 | N#Cc1cc(O[C@H]2C[C@@]3(C2)O[C@@H]2CC[C@@H](c4ccc(F)cc4)N2C3=O)ncn1 [Example 9.1, 6-(((1r,3R,5′S,7a′R)-5′-(4-fluorophenyl)-3′-oxotetrahydro-3′H-spiro[cyclobutane-1,2′-pyrrolo[2,1-b]oxazol]-3-yl)oxy)pyrimidine-4-carbonitrile] |
| 0.649 | O=C1N2[C@@H](CC[C@H]2c2cnccn2)OC12CC(OCC1CCCC1)C2 (single isomer, unassigned) [Example 23.4, (5′S,7a′R)-3-(cyclopentylmethoxy)-5′-(pyrazin-2-yl)tetrahydro-3′H-spiro[cyclobutane-1,2′-pyrrolo[2,1-b]oxazol]-3′-one] |
| 0.046 | CCC(C)Oc1cccc(COC2CC3(C2)OC2CC[C@@H](c4cnccn4)N2C3=O)n1 (stereo partly drawn) [Example 18.13, (5′S)-3-({6-[(butan-2-yl)oxy]pyridin-2-yl}methoxy)-5′-(pyrazin-2-yl)tetrahydro-3′H-spiro[cyclobutane-1,2′-pyrrolo[2,1-b][1,3]oxazol]-3′-one] |
| 0.203 | Cn1ccc([C@@H]2CC[C@H]3O[C@]4(C[C@@H](Oc5cccc(C#N)c5)C4)C(=O)N32)n1 [Example 19.6, 3-{[(1s,3S,5′S,7a′R)-5′-(1-methyl-1H-pyrazol-3-yl)-3′-oxotetrahydro-3′H-spiro[cyclobutane-1,2′-pyrrolo[2,1-b][1,3]oxazol]-3-yl]oxy}benzonitrile] |
| 0.029 | O=C1N2[C@@H](CC[C@H]2c2ccccc2)OC12CC(Oc1nncc3cccn13)C2 (stereo partly drawn) [Example 8.23, (5′S,7a′R)-5′-phenyl-3-[(pyrrolo[1,2-d][1,2,4]triazin-4-yl)oxy]tetrahydro-3′H-spiro[cyclobutane-1,2′-pyrrolo[2,1-b][1,3]oxazol]-3′-one] |
| 0.07 | CC(OC1CC2(C1)OC1CCC(c3cc(F)cc(F)c3)N1C2=O)c1ccccc1 (single isomer, unassigned) [Example 15.2, ((1R or S),3R,5′S,7a′R)-5′-(3,5-difluorophenyl)-3-((S or R)-1-phenylethoxy)tetrahydro-3′H-spiro[cyclobutane-1,2′-pyrrolo[2,1-b]oxazol]-3′-one] |

| Structure (SMILES) | EC50 [µM] |
| --- | --- |
| COc1ccc2cc(COC3CC4(C3)OC3CC[C@@H](c5cnccn5)N3C4=O)ncc2n1 (stereo partly drawn) [Example 18.32, (5′S)-3-[(2-methoxy-1,7-naphthyridin-6-yl)methoxy]-5′-(pyrazin-2-yl)tetrahydro-3′H-spiro[cyclobutane-1,2′-pyrrolo[2,1-b][1,3]oxazol]-3′-one] | 0.143 |
